These are literature values, as cited in patent US10172913B2, “Orally disintegrating solid pharmaceutical dosage unit containing a partus control substance” (Oxytone Bioscience B.V., priority 2014, dated 2019).

Structures are written as SMILES. Bridge positions count the residues as written; N and C are the ends. Square brackets hold non-standard residues; d marks the D form. Peptide text beside a SMILES is read from it. Orn = NCCC[C@H](N)C(=O)O; Mpa = O=C(O)CCS

For data set [1] the following is noted: lyophilized.
For data set [2] the following is noted: in vivo.

Turning to `CCOc1ccc(C[C@H]2NC(=O)CCSSC[C@@H](C(=O)N3CCC[C@H]3C(=O)N[C@@H](CCCN)C(=O)NCC(N)=O)NC(=O)[C@H](CC(N)=O)NC(=O)[C@H]([C@@H](C)O)NC(=O)[C@H]([C@@H](C)CC)NC2=O)cc1` [atosiban] ([Mpa][dY](Et)ITNCP[Orn]G-NH2; disulfide 1-6), the “time stable at room temperature” value in data set [1] is 3 weeks.

For the compound `CC[C@H](C)[C@@H]1NC(=O)[C@H](Cc2ccc(O)cc2)NC(=O)[C@@H](N)CSSC[C@@H](C(=O)N2CCC[C@H]2C(=O)N[C@@H](CC(C)C)C(=O)NCC(N)=O)NC(=O)[C@H](CC(N)=O)NC(=O)[C@H](CCC(N)=O)NC1=O` [Oxytocin, cysteine-tyrosine-isoleucine-glutamine-asparagine-cysteine-proline-leucine-glycine-amide], in data set [2], the “half-life in the blood” value was “about three”.
